Measurements: ChEMBL document CHEMBL6096638, “Design, synthesis and biological evaluation of novel TMPRSS2-PROTACs with florosubstituted 4-guanidino-N-phenylbenzamide derivative ligands” (Bioorg Med Chem, 2024)
Activity calls are given as the source filed them. No cut-off for these calls is given here.

Columns and labels:
Calu-3 [1] = experiment: Antiproliferative activity against human Calu-3 cells assessed as inhibition of cell growth at 20 uM incubated for 48 hrs by CCK-8 assay relative to control; type: functional
HT-29 [2] = experiment: Antiproliferative activity against human HT-29 cells assessed as inhibition of cell growth at 20 uM incubated for 48 hrs by CCK-8 assay relative to control; type: functional
DU-145 [3] = experiment: Antiproliferative activity against human DU-145 cells assessed as inhibition of cell growth at 20 uM incubated for 48 hrs by CCK-8 assay relative to control; type: functional
DU-145 [4] = experiment: Antiproliferative activity against human DU-145 cells assessed as inhibition of cell growth incubated for 48 hrs by CCK-8 assay; type: functional, cell-based; details: DU-145, 48 h
HT-29 [5] = experiment: Antiproliferative activity against human HT-29 cells assessed as inhibition of cell growth incubated for 48 hrs by CCK-8 assay; type: functional, cell-based; details: HT-29, 48 h
Calu-3 [6] = experiment: Antiproliferative activity against human Calu-3 cells assessed as inhibition of cell growth incubated for 48 hrs by CCK-8 assay; type: functional, cell-based; details: Calu-3, 48 h
A549 = experiment: Antiproliferative activity against human A549 cells assessed as inhibition of cell growth incubated for 48 hrs by CCK-8 assay; type: functional, cell-based; details: A549, 48 h
MRC5 = experiment: Antiproliferative activity against human MRC5 cells assessed as inhibition of cell growth incubated for 48 hrs by CCK-8 assay; type: functional, cell-based; details: MRC5, 48 h
MDA-MB-231 = experiment: Antiproliferative activity against human MDA-MB-231 cells assessed as inhibition of cell growth incubated for 48 hrs by CCK-8 assay; type: functional, cell-based; details: MDA-MB-231, 48 h
AGS = experiment: Antiproliferative activity against human AGS cells assessed as inhibition of cell growth incubated for 48 hrs by CCK-8 assay; type: functional, cell-based
PC-3 = experiment: Antiproliferative activity against human PC-3 cells assessed as inhibition of cell growth incubated for 48 hrs by CCK-8 assay; type: functional, cell-based; details: PC-3, 48 h
SK-N-AS = experiment: Antiproliferative activity against human SK-N-AS cells assessed as inhibition of cell growth incubated for 48 hrs by CCK-8 assay; type: functional, cell-based
A-375 = experiment: Antiproliferative activity against human A-375 cells assessed as inhibition of cell growth incubated for 48 hrs by CCK-8 assay; type: functional, cell-based; details: A-375, 48 h
786-0 = experiment: Antiproliferative activity against human 786-0 cells assessed as inhibition of cell growth incubated for 48 hrs by CCK-8 assay; type: functional, cell-based; details: 786-0, 48 h
NCI-H1299 = experiment: Antiproliferative activity against human NCI-H1299 cells assessed as inhibition of cell growth incubated for 48 hrs by CCK-8 assay; type: functional, cell-based; details: NCI-H1299, 48 h
SH-SY5Y = experiment: Antiproliferative activity against human SH-SY5Y cells assessed as inhibition of cell growth incubated for 48 hrs by CCK-8 assay; type: functional, cell-based
K562 = experiment: Antiproliferative activity against human K562 cells assessed as inhibition of cell growth incubated for 48 hrs by CCK-8 assay; type: functional, cell-based; details: K562, 48 h
CWR22R = experiment: Antiproliferative activity against human 22Rv1 cells assessed as inhibition of cell growth incubated for 48 hrs by CCK-8 assay; type: functional, cell-based; details: 22Rv1, 48 h
VCaP = experiment: Antiproliferative activity against human VCaP cells assessed as inhibition of cell growth incubated for 48 hrs by CCK-8 assay; type: functional, cell-based
HepG2 = experiment: Antiproliferative activity against human HepG2 cells assessed as inhibition of cell growth incubated for 48 hrs by CCK-8 assay; type: functional, cell-based; details: HepG2, 48 h
MCF7 = experiment: Antiproliferative activity against human MCF7 cells assessed as inhibition of cell growth incubated for 48 hrs by CCK-8 assay; type: functional, cell-based; details: MCF7, 48 h

| SMILES | inhibition (Calu-3 [1]) | inhibition at 20 µM (HT-29 [2]) | inhibition at 20 µM (DU-145 [3]) | further results |
| --- | --- | --- | --- | --- |
| Cc1ncsc1-c1ccc(CNC(=O)[C@@H]2C[C@@H](O)CN2C(=O)[C@@H](NC(=O)OCCOCCOCCOCc2cccc(NC(=O)c3ccc(NC(=N)N)cc3)c2)C(C)(C)C)cc1 | inactive | 15.1% | 13.7% |  |
| Cc1ncsc1-c1ccc(CNC(=O)[C@@H]2C[C@@H](O)CN2C(=O)[C@@H](NC(=O)CN2CCC(CN3CCN(c4ccc(NC(=O)Cc5ccc(NC(=O)c6ccc(NC(=N)N)cc6)cc5)cc4)CC3)CC2)C(C)(C)C)cc1 | inactive | 25.9% | 5.63% |  |
| COc1cc(C(=O)Nc2ccc(N3CCN(CC4CCN(CC(=O)N[C@H](C(=O)N5C[C@H](O)C[C@H]5C(=O)NCc5ccc(-c6scnc6C)cc5)C(C)(C)C)CC4)CC3)cc2)ccc1NC(=N)N | inactive | 42.3% |  | inhibition (DU-145 [3]): inactive |
| COc1cc(C(=O)Nc2ccc(CC(=O)NCCCCCCNc3cccc4c3C(=O)N(C3CCC(=O)NC3=O)C4=O)cc2)ccc1NC(=N)N (configuration not stated) | inactive | 21.1% | 10.5% |  |
| COc1cc(C(=O)Nc2ccc(N3CCN(CC(=O)N[C@H](C(=O)N4C[C@H](O)C[C@H]4C(=O)NCc4ccc(-c5scnc5C)cc4)C(C)(C)C)CC3)cc2)ccc1NC(=N)N | inactive | 30.7% | 6.76% |  |
| COc1cc(C(=O)Nc2ccc(CC(=O)NCCCCCCCC(=O)N[C@H](C(=O)N3C[C@H](O)C[C@H]3C(=O)NCc3ccc(-c4scnc4C)cc3)C(C)(C)C)cc2)ccc1NC(=N)N | inactive | 31.6% | 11.2% |  |
| Cc1ncsc1-c1ccc(CNC(=O)[C@@H]2C[C@@H](O)CN2C(=O)[C@@H](NC(=O)COCCOCCOCCN2CCN(c3cccc(NC(=O)c4ccc(NC(=N)N)cc4)c3)CC2)C(C)(C)C)cc1 | inactive | 23.8% | 15.3% |  |
| COc1cc(C(=O)Nc2ccc(CC(=O)Nc3ccc(CC(=O)NCCCCCCNc4cccc5c4C(=O)N(C4CCC(=O)NC4=O)C5=O)cc3)cc2)ccc1NC(=N)N (configuration not stated) | inactive | 32.7% | 16.5% |  |
| COc1cc(C(=O)Nc2ccc(CC(=O)NCCCCCC(=O)N[C@H](C(=O)N3C[C@H](O)C[C@H]3C(=O)NCc3ccc(-c4scnc4C)cc3)C(C)(C)C)cc2)ccc1NC(=N)N | inactive | 20.5% | 7.56% |  |
| Cc1ncsc1-c1ccc(CNC(=O)[C@@H]2C[C@@H](O)CN2C(=O)[C@@H](NC(=O)CN2CCC(CN3CCN(c4ccc(NC(=O)c5ccc(NC(=N)N)cc5F)cc4)CC3)CC2)C(C)(C)C)cc1 |  | 91.9% | 56.9% | inhibition at 20 µM (Calu-3 [1]): 47.5%; IC50 (DU-145 [4]): 11.2 µM; IC50 (HT-29 [5]): 3.83 µM; IC50 (Calu-3 [6]): 21.4 µM; IC50 (A549): 35.1 µM; IC50 (MRC5): > 40 µM |
| Cc1ncsc1-c1ccc(CNC(=O)[C@@H]2C[C@@H](O)CN2C(=O)[C@@H](NC(=O)CN2CCC(CN3CCN(c4ccc(NC(=O)Cc5ccc(NC(=O)c6ccc(NC(=N)N)cc6F)cc5)cc4)CC3)CC2)C(C)(C)C)cc1 | inactive | 37.3% | 5.64% |  |
| COc1cc(C(=O)Nc2ccc(CC(=O)NCCCCCC(=O)Nc3cccc4c3CN(C3CCC(=O)NC3=O)C4=O)cc2)ccc1NC(=N)N (configuration not stated) | inactive | 18.9% | 9.05% |  |
| COc1cc(C(=O)Nc2ccc(CC(=O)N3CCC(CN4CCN(c5ccc6c(c5)C(=O)N(C5CCC(=O)NC5=O)C6=O)CC4)CC3)cc2)ccc1NC(=N)N (configuration not stated) | inactive | 37.7% | 14.6% |  |
| CC(=O)O[C@H]1C(=O)[C@@]2(C)[C@H]([C@H](OC(=O)c3ccccc3)[C@]3(O)C[C@H](OC(=O)[C@H](O)[C@@H](NC(=O)c4ccccc4)c4ccccc4)C(C)=C1C3(C)C)[C@]1(OC(C)=O)CO[C@@H]1C[C@@H]2O [PACLITAXEL] |  |  |  | IC50 (DU-145 [4]): 0.01 µM; IC50 (HT-29 [5]): 0.01 µM; IC50 (Calu-3 [6]): 37.2 µM; IC50 (MDA-MB-231): 0.06 µM; IC50 (AGS): 0.01 µM; IC50 (PC-3): 7.56 µM; IC50 (MRC5): 0.11 µM; IC50 (SK-N-AS): 0.01 µM; IC50 (A-375): 0.01 µM; IC50 (786-0): 0.08 µM; IC50 (NCI-H1299): 1.15 µM; IC50 (SH-SY5Y): 0.01 µM; IC50 (K562): 0.01 µM; IC50 (CWR22R): 0.04 µM; IC50 (VCaP): 5.54 µM |
| COc1cc(C(=O)Nc2ccc(CC(=O)Nc3ccc(N4CCN(CC5CCN(CC(=O)N[C@H](C(=O)N6C[C@H](O)C[C@H]6C(=O)NCc6ccc(-c7scnc7C)cc6)C(C)(C)C)CC5)CC4)cc3)cc2)ccc1NC(=N)N |  | 18.4% | 5.06% | inhibition at 20 µM (Calu-3 [1]): 5.66% |
| N=C(N)Nc1ccc(C(=O)Oc2ccc3cc(C(=N)N)ccc3c2)cc1 [NAFAMOSTAT] |  |  |  | IC50 (DU-145 [4]): > 40 µM; IC50 (HepG2): > 40 µM; IC50 (HT-29 [5]): > 40 µM; IC50 (Calu-3 [6]): 37.9 µM; IC50 (A549): > 40 µM; IC50 (MDA-MB-231): > 40 µM; IC50 (AGS): > 40 µM; IC50 (PC-3): 39.9 µM; IC50 (MRC5): > 40 µM; IC50 (SK-N-AS): > 40 µM; IC50 (A-375): > 40 µM; IC50 (786-0): > 40 µM; IC50 (NCI-H1299): 19.2 µM; IC50 (SH-SY5Y): 37.1 µM; IC50 (K562): > 40 µM; IC50 (MCF7): > 40 µM; IC50 (CWR22R): > 40 µM; IC50 (VCaP): > 40 µM |
| COc1cc(C(=O)Nc2ccc(CC(=O)NCCCCCCC(=O)N[C@H](C(=O)N3C[C@H](O)C[C@H]3C(=O)NCc3ccc(-c4scnc4C)cc3)C(C)(C)C)cc2)ccc1NC(=N)N | inactive | 31.6% | 8.05% |  |
| Cc1ncsc1-c1ccc(CNC(=O)[C@@H]2C[C@@H](O)CN2C(=O)[C@@H](NC(=O)COCCOCCOCCN2CCN(c3ccc(NC(=O)c4ccc(NC(=N)N)cc4)cc3)CC2)C(C)(C)C)cc1 | inactive | 14.4% |  | inhibition (DU-145 [3]): inactive |
| N=C(N)Nc1ccc(C(=O)Nc2ccc(CC(=O)N3CCC(CN4CCN(CCCNc5ccc6c(c5)C(=O)N(C5CCC(=O)NC5=O)C6=O)CC4)CC3)cc2)cc1 (configuration not stated) |  | 37.4% | 16.8% | inhibition at 20 µM (Calu-3 [1]): 5.77% |
| Cc1ncsc1-c1ccc(CNC(=O)[C@@H]2C[C@@H](O)CN2C(=O)[C@@H](NC(=O)CN2CCN(c3ccc(NC(=O)c4ccc(NC(=N)N)cc4F)cc3)CC2)C(C)(C)C)cc1 |  | 34.4% | 14.4% | inhibition at 20 µM (Calu-3 [1]): 10.3% |
| Cc1ncsc1-c1ccc(CNC(=O)[C@@H]2C[C@@H](O)CN2C(=O)[C@@H](NC(=O)CN2CCC(CN3CCN(c4ccc(NC(=O)c5ccc(NC(=N)N)cc5)cc4)CC3)CC2)C(C)(C)C)cc1 | inactive | 35.5% | 6.8% |  |
| N=C(N)Nc1ccc(C(=O)Nc2ccc(CC(=O)NCCCCCC(=O)N3CCN(c4ccc5c(c4)C(=O)N(C4CCC(=O)NC4=O)C5=O)CC3)cc2)cc1 (configuration not stated) | inactive | 22.4% | 5.82% |  |
| Cc1ncsc1-c1ccc(CNC(=O)[C@@H]2C[C@@H](O)CN2C(=O)[C@@H](NC(=O)CN2CCN(c3ccc(NC(=O)c4ccc(NC(=N)N)cc4)cc3)CC2)C(C)(C)C)cc1 | inactive | 29.7% | 9.51% |  |
| COc1cc(C(=O)Nc2cccc(COCCOCCOCCOC(=O)N[C@H](C(=O)N3C[C@H](O)C[C@H]3C(=O)NCc3ccc(-c4scnc4C)cc3)C(C)(C)C)c2)ccc1NC(=N)N | inactive | 30.1% | 8.88% |  |
| COc1cc(C(=O)Nc2ccc(CC(=O)NCCCCCC(=O)N3CCN(c4ccc5c(c4)C(=O)N(C4CCC(=O)NC4=O)C5=O)CC3)cc2)ccc1NC(=N)N (configuration not stated) | inactive | 7.56% | 7.04% |  |
